Tested on: full-length human prolyl-4-hydroxylase domain (PHD) enzymes, PHD1 and PHD2
Assay: TR-FRET assay, selectivity of compounds for PHD1 over PHD2 (ratio of Kis calculated from IC50s)
Type: biochemical
Conditions: ratio of Kis (PHD2 Ki/PHD1 Ki), Kis calculated from TR-FRET IC50s by Cheng Prussoff equation; 1 uM 2-OG
Source text: Time-resolved fluorescence resonance energy transfer (TR-FRET) assay was utilized to determine the enzymatic half maximal inhibitory concentration (IC50) value of PHD inhibitors against the full-length human prolyl-4-hydroxylase domain (PHD) enzymes, PHD1 and PHD2. The TR-FRET assay was developed based on the specific binding of hydroxylated HIF-la peptide with the complex formed by VHL, EloB and EloC (VBC), to generate a fluorescent signal. Terbium (Tb)-Donor (monoclonal antibody anti-6His-Tb-cryptate Gold) and D2-acceptor (streptavidin [SA]-D2) of TR-FRET are linked to the VBC complex and to HIF-1α peptide, respectively. The VBC complex binds specifically to the HIF-1α peptide when it is hydroxylated, allowing energy transfer from TR-FRET donor to acceptor (FIG. 1).
TR-FRET Reagents. Monoclonal antibody anti-6His-Tb-cryptate Gold (catalog #61HI2TLA) and streptavidin (SA)-D2 (catalog #610SADLA) were purchased from CisBio International (Bedford, MA, USA).
N-terminus biotinylated HIF-1α C35 synthetic peptide representing amino acids 547 to 581 and including the proline 564 PHD2 hydroxylation site was purchased from California Peptide Research (Salt Lake City, UT, USA).
VBC Complex. His-tagged recombinant VHL protein, EloB, EloC complex (His-VBC) was supplied by Axxam (Milan, Italy). Recombinant human VHL (National Center for Biotechnology Information [NCBI] accession number NP_00542.1) contained a His tag at the C-terminus of amino acids 55 to 213 and is referred to as VHL-His. VHL-His was co-expressed in E. coli with full-length human EloB (NCBI accession number Q15370.1) and full-length human EloC (NCBI accession number Q15369.1) and purified by affinity chromatography on a nickel-nitrilotriacetic acid (Ni-NTA) column as the His-VBC complex. Purity (˜80%) was assessed by sodium dodecyl sulfate polyacrylamide gel electrophoresis (SDS-PAGE).
PHD1. Recombinant human PHD1 protein (catalog #81064, Lot #24717001) was purchased from Active Motif (Carlsbad, CA, USA). PHD1 was expressed in a baculovirus expression system as the full-length protein (NCBI accession number NP_542770.2) with an N-terminal FLAG tag (molecular weight 44.9 kDa). Purity (>90%) was assessed by SDS-PAGE.
PHD2. The full-length human PHD2 enzyme was produced with a baculovirus infected insect cell (BIIC) expression system by Beryllium (Bedford, MA, USA). The PHD2 construct contained amino acids 1 to 426 of PHD2 (UniProt Knowledgebase[UniProtKB]/Swiss-Prot accession number Q9GZT9.1), and a His tag and a Tobacco Etch Virus (TEV) protease cleavage site at the N-terminus. The construct was expressed in Sf9 insect cells, purified by Ni-NTA column and digested with TEV protease to remove the His tag.
Compounds were preincubated with PHD enzyme in a 10 μL reaction volume in white 384-well Optiplate microplates (catalog #6007290, Perkin Elmer, Waltham, MA, USA). For this, 5 μL compound was serially diluted with dilution buffer (50 mM HEPES [4-(2-hydroxyethyl)-1-piperazineethanesulfonic acid] pH 7.5, 50 mM sodium chloride [NaCl], 0.01% Tween-20, 0.01% purified bovine serum albumin [BSA]) and mixed with 5 μL PHD enzyme mix prepared as a 4× concentrate in the dilution buffer containing PHD enzyme (60 nM PHD1, 20 nM PHD2, 140 nM PHD3), 40 μM ferrous ammonium sulfate (FAS), 4 mM sodium (Na) ascorbate. The plates were incubated for 30 minutes at room temperature without rotation.
Five microliters of the VBC/anti-6His-Tb-cryptate Gold mix prepared as a 4× concentrate in dilution buffer containing 20 nM His-VBC, 1.32 nM monoclonal antibody anti-6His-Tb-cryptate Gold was then added. This step was followed immediately by the addition of 5 μL of the HIF-1α C35 substrate mix prepared as a 4× concentrate in the dilution buffer containing 120 nM biotin-labeled HIF-1α C35, 132 nM SA-D2, 4 μM 2-oxoglutarate (2-OG) to reach a final reaction volume of 20 μL. […]

Row | Structure (SMILES) | Selectivity of PHD1 over PHD2 [fold]
1 | O=C(O)CCNC(=O)c1ncc(-c2cnn(-c3ccccc3)c2)cc1O [compound 54, 3-(3-hydroxy-5-(1-phenyl-1H-pyrazol-4-yl)picolinamido)propanoic acid] | ~11
2 | COc1cc2c(-c3cnc(C(=O)NCC(C)(C)C(=O)O)c(O)c3)cn(C)c2cn1 [compound 55, 3-(3-hydroxy-5-(5-methoxy-1-methyl-1H-pyrrolo[2,3-c]pyridin-3-yl)picolinamido)-2,2-dimethylpropanoic acid] | ~96
3 | CC(C)(CNC(=O)c1ncc(-c2scc3c2OCCO3)cc1O)C(=O)O [compound 56, 3-(5-(2,3-dihydrothieno[3,4-b][1,4]dioxin-5-yl)-3-hydroxypicolinamido)-2,2-dimethylpropanoic acid] | ~44
4 | CC(C)(CNC(=O)c1ncc(-c2ccc3c(=O)[nH]ncc3c2)cc1O)C(=O)O [compound 57, 3-(3-hydroxy-5-(1-oxo-1,2-dihydrophthalazin-6-yl)picolinamido)-2,2-dimethylpropanoic acid] | ~64
5 | CCOc1ccc2cc(-c3cnc(C(=O)NCC(C)(C)C(=O)O)c(O)c3)ccc2c1 [compound 58, 3-(5-(6-ethoxynaphthalen-2-yl)-3-hydroxypicolinamido)-2,2-dimethylpropanoic acid] | ~911
6 | CC(C)(CNC(=O)c1ncc(-c2ccc3cc(NS(C)(=O)=O)ccc3c2)cc1O)C(=O)O [compound 59, 3-(3-hydroxy-5-(6-(methylsulfonamido)naphthalen-2-yl)picolinamido)-2,2-dimethylpropanoic acid] | ~88
7 | Cc1c(-c2cnc(C(=O)NCC(C)(C)C(=O)O)c(O)c2)ccc2ccccc12 [compound 60, 3-(3-hydroxy-5-(1-methylnaphthalen-2-yl)picolinamido)-2,2-dimethylpropanoic acid] | ~204
8 | CC(C)c1ccc2sc(-c3cnc(C(=O)NCC(C)(C)C(=O)O)c(O)c3)cc2c1 [compound 61, 3-(3-hydroxy-5-(5-isopropylbenzo[b]thiophen-2-yl)picolinamido)-2,2-dimethylpropanoic acid] | ~341
9 | O=C(O)CCNC(=O)c1ncc(-c2ccc3ccccc3c2)cc1O [compound 62, 3-(3-hydroxy-5-(naphthalen-2-yl)picolinamido)propanoic acid] | ~24
